ChEMBL document CHEMBL1772962, “In vitro and in vivo evaluation of 6-aminopyrazolyl-pyridine-3-carbonitriles as JAK2 kinase inhibitors” (Bioorg Med Chem Lett, 2011)
Values after ≈ are worked out from the molar mass of the structure shown. Active and inactive are the calls of the source. No cut-off for these calls is given here.

Assays:
[1] = Volume of distribution at steady state in Han Wistar rat at 10 mg/kg, po and 3 mg/kg, iv; type: ADME, organism-based; details: in vivo, read-out: Vdss
[2] = target: T1, Tyrosine-protein kinase JAK3 (Homo sapiens, UniProt P52333); assay: Inhibition of JAK3 after 60 min
T1 sequence (P52333 whole entry): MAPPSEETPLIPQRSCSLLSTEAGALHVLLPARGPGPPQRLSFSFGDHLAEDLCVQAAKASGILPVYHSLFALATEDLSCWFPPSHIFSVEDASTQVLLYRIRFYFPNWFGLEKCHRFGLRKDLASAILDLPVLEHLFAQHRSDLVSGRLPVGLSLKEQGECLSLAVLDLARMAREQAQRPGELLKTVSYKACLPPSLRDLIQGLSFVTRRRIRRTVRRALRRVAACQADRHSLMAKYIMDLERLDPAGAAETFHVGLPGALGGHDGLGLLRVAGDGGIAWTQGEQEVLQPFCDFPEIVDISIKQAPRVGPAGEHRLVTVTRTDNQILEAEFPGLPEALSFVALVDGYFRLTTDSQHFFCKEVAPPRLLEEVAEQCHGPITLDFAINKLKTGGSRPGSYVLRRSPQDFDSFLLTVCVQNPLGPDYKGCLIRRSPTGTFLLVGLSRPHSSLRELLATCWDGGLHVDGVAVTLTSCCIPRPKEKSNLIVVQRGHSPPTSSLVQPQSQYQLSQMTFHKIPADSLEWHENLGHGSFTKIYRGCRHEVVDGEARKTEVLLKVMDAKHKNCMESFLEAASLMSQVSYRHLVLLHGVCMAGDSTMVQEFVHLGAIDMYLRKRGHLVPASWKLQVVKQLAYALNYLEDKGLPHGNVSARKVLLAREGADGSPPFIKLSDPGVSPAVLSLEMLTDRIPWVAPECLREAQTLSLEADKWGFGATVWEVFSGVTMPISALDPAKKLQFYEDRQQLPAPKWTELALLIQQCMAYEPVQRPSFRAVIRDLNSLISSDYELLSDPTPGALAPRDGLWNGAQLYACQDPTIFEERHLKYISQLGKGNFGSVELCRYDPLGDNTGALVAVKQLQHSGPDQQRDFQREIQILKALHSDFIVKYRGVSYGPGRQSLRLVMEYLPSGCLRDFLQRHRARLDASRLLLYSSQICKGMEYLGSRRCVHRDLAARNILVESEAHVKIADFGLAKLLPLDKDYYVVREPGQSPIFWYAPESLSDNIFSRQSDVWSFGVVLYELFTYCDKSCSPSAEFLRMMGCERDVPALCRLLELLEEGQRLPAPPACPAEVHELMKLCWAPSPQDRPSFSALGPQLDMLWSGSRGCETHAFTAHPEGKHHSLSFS

[3] = Half life in Han Wistar rat at 10 mg/kg, po and 3 mg/kg, iv; type: ADME, organism-based; details: in vivo
[4] = Oral bioavailability in Han Wistar rat at 10 mg/kg; type: ADME, organism-based; details: in vivo
[5] = target: T2, Tyrosine-protein kinase JAK2 (Homo sapiens, UniProt O60674); assay: Inhibition of JAK2 after 60 min
T2 sequence (O60674 whole entry, the tested form may be a part): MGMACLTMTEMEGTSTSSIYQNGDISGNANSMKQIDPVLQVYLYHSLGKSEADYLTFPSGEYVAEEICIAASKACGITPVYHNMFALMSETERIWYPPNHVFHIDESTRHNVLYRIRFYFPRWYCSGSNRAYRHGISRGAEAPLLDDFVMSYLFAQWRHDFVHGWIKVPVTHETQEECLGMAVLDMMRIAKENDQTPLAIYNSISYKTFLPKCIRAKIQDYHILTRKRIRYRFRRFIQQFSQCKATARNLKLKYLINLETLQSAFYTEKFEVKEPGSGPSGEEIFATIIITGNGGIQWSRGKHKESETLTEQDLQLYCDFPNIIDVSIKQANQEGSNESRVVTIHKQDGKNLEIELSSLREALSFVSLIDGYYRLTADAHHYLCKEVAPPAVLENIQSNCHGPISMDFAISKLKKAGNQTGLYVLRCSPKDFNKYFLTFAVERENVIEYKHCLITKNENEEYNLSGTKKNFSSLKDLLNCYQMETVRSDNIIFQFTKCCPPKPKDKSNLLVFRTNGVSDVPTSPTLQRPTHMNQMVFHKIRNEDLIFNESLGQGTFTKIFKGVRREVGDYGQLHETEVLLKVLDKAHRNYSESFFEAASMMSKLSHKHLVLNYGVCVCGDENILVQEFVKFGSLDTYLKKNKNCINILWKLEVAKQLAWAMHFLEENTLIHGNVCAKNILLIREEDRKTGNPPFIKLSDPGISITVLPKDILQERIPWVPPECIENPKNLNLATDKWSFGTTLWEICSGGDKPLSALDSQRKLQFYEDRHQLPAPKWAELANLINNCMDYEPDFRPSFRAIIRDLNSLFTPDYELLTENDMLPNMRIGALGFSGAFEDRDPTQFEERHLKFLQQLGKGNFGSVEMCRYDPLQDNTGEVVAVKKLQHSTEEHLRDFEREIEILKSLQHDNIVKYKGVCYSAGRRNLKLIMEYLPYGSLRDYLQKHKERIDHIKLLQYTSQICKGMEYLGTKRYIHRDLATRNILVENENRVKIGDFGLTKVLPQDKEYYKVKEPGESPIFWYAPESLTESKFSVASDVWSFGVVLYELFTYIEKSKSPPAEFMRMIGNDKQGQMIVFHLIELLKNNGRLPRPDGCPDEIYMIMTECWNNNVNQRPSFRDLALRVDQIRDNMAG

[6] = target: T3, Tyrosine-protein kinase JAK3 (Homo sapiens) (UniProt P52333); assay: Inhibition of TEL-fused JAK3-induced proliferative activity against mouse BA/F3 cells; type: cell-based; details: BaF3
T3 sequence (whole entry): T1 sequence (P52333 whole entry)

[7] = Growth inhibition of human SET2 cells expressing JAK2 V617F mutant after 48 hrs by alamar blue assay; type: functional; details: SET-2, 48 h
[8] = target: T2, Tyrosine-protein kinase JAK2; assay: Inhibition of TEL-fused JAK2-induced proliferation of mouse BA/F3 cells; type: cell-based; details: BaF3
[9] = Intrinsic clearance in Han Wistar rat microsomes at 10 mg/kg, po and 3 mg/kg, iv; type: ADME, Microsome
[10] = Aqueous solubility of compound; type: physicochemical
[11] = Clearance in Han Wistar rat at 10 mg/kg, po and 3 mg/kg, iv; type: ADME, organism-based; details: in vivo
[12] = target: T1, Tyrosine-protein kinase JAK3; assay: Inhibition of human JAK3
[13] = Oral bioavailability in dog; type: ADME, organism-based, Canis lupus familiaris; details: in vivo
[14] = Plasma concentration in NCr mouse tansplanted with TEL-JAK2 expressing mouse BA/F3 cells at 10 mg/kg, po after 6 hrs; type: ADME, organism-based, BaF3; design: dose 10 mg/kg, route oral
[15] = target: T4, High affinity nerve growth factor receptor (Homo sapiens, UniProt P04629); assay: Inhibition of human truncated TrkA in human MCF10a cells by time-resolved fluorimetry; type: cell-based
Target sequence in this assay (P04629 33-796 limits assumed): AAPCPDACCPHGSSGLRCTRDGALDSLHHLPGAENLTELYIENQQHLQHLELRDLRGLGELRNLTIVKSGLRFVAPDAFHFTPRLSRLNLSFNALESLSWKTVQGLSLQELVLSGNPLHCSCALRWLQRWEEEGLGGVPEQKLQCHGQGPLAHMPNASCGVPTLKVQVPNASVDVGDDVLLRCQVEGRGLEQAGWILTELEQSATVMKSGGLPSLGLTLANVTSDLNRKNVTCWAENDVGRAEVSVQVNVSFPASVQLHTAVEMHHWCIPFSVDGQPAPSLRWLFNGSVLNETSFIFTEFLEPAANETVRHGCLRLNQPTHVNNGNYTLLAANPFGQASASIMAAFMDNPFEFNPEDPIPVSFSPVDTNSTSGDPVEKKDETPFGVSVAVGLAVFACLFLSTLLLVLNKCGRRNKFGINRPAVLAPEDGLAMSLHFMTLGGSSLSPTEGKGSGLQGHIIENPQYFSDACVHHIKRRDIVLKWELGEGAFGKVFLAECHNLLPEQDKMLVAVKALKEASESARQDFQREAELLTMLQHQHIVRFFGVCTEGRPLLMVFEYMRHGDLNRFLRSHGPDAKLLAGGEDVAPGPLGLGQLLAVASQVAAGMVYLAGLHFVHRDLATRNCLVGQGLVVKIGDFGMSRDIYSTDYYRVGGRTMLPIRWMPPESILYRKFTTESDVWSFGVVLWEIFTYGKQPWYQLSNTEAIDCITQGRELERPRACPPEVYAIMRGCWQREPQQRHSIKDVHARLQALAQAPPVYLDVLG

[16] = Free drug level in plasma of NCr mouse tansplanted with TEL-JAK2 expressing mouse BA/F3 cells at 10 mg/kg, po after 6 hrs; type: ADME, organism-based, BaF3; design: dose 10 mg/kg, route oral; details: in vivo
[17] = Clearance in dog; type: ADME, organism-based, Canis lupus familiaris; details: in vivo
Mus musculus [18] = assay: Inhibition of STAT5 phosphorylation in NCr mouse tansplanted with TEL-JAK2 expressing mouse BA/F3 cells at 5 mg/kg, po measured at 6 hrs; type: functional; details: BaF3, 6 h
[19] = target: T2, Tyrosine-protein kinase JAK2; assay: Inhibition of human JAK2
[20] = target: Tyrosine-protein kinase Lck (Homo sapiens, UniProt P06239); assay: Inhibition of human Lck
Tyrosine-protein kinase Lck, sequence (P06239 whole entry): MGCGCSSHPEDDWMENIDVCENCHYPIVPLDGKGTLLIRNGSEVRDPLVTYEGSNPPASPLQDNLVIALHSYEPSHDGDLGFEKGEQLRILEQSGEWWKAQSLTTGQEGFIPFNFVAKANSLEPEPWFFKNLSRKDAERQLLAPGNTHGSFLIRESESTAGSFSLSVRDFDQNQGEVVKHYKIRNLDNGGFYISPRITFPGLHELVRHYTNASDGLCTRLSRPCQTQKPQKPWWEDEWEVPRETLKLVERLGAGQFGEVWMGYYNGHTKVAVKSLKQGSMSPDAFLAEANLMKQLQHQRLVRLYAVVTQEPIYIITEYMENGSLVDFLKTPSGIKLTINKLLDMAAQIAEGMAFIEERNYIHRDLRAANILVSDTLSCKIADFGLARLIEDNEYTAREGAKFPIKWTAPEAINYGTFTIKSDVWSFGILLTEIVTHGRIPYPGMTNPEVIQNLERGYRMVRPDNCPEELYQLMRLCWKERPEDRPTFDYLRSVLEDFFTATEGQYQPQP

[21] = Fraction unbound in human plasma; type: ADME, cell-free
Mus musculus [22] = assay: Inhibition of STAT5 phosphorylation in NCr mouse tansplanted with TEL-JAK2 expressing mouse BA/F3 cells at 2.5 mg/kg, po upto 2 hrs; type: functional, organism-based; design: dose 2.5 mg/kg; details: BaF3
[23] = target: T5, Muscle, skeletal receptor tyrosine-protein kinase (Homo sapiens, UniProt O15146); assay: Inhibition of human MuSk
T5 sequence (O15146 whole entry): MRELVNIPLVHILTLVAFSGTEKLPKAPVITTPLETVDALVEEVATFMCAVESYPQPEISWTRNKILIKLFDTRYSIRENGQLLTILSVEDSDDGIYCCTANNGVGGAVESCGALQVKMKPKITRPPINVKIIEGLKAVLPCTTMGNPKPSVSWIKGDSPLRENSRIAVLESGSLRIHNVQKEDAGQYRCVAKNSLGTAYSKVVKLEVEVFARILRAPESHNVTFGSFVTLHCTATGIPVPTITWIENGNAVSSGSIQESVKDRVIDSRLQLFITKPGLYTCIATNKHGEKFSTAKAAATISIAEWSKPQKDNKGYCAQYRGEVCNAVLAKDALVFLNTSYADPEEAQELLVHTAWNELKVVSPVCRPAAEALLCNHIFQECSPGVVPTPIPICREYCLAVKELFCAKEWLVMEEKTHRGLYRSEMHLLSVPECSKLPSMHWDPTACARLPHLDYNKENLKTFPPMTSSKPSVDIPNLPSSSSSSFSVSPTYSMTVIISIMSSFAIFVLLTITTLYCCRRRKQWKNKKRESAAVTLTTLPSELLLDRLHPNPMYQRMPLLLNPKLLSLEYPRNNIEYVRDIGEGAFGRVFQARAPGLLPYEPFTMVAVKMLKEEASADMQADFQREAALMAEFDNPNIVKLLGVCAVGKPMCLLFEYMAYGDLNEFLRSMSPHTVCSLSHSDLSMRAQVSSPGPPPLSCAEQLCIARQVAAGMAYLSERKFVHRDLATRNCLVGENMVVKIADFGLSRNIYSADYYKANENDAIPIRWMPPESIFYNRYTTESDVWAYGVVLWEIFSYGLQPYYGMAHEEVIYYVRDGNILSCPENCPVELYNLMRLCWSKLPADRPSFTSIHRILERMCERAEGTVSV

[24] = Plasma concentration in NCr mouse tansplanted with TEL-JAK2 expressing mouse BA/F3 cells at 10 mg/kg, po after 2 hrs; type: ADME, organism-based, BaF3; design: dose 10 mg/kg, route oral
[25] = Half life in dog; type: ADME, organism-based, Canis lupus familiaris; details: in vivo
[26] = target: T4, High affinity nerve growth factor receptor; assay: Inhibition of human TRKA
Target sequence in this assay (P04629 whole entry, the tested form may be a part): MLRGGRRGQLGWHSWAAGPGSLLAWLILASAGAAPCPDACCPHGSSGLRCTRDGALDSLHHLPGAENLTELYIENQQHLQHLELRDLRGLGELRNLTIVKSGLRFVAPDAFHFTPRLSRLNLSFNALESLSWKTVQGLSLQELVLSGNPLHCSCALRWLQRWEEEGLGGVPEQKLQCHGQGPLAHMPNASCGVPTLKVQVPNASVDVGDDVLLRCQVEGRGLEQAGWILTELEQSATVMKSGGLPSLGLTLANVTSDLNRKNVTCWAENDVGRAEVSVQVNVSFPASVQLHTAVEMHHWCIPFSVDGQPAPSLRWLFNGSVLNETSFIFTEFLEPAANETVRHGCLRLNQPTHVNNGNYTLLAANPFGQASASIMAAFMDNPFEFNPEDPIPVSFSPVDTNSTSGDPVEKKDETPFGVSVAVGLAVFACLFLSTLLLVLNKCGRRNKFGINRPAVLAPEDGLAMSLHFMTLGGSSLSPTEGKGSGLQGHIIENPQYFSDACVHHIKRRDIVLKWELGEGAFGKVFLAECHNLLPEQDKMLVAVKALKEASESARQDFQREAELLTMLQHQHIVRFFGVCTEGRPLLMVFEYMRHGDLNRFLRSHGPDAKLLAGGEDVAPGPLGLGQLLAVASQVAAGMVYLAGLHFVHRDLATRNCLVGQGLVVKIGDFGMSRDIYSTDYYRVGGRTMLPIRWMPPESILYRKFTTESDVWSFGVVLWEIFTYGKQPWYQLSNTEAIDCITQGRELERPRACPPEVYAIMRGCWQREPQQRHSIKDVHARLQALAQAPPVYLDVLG

Ephrin type-B receptor 2 = target: T6, Ephrin type-B receptor 2 (Homo sapiens, UniProt P29323); assay: Inhibition of human EphB2
T6 sequence (P29323 whole entry): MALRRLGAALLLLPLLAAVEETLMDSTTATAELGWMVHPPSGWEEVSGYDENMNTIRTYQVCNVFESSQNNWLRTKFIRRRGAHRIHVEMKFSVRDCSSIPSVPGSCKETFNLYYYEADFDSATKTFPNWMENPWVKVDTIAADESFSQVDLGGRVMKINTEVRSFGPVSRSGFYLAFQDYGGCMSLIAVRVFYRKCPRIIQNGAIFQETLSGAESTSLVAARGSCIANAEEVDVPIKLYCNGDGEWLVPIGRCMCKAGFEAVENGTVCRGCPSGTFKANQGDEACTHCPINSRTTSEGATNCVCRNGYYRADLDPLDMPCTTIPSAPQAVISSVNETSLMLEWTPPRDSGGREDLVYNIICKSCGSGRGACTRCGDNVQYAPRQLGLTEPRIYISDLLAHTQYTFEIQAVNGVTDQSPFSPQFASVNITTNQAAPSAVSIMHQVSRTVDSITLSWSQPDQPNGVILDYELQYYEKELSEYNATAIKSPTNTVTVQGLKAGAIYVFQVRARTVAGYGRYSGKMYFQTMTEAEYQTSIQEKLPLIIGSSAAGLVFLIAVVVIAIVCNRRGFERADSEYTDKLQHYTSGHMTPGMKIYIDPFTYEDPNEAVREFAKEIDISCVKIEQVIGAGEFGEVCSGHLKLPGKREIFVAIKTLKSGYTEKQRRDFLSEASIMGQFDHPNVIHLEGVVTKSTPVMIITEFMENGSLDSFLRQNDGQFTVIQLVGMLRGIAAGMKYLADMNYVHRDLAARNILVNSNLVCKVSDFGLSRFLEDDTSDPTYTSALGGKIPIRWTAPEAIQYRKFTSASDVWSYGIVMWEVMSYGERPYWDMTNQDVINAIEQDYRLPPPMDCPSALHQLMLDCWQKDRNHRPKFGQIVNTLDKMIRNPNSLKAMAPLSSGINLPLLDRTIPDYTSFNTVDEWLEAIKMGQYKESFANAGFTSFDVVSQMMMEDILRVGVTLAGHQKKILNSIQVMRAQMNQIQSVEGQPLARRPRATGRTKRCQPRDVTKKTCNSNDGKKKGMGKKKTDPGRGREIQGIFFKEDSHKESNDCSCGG

Mus musculus [27] = assay: Inhibition of STAT5 phosphorylation in NCr mouse tansplanted with TEL-JAK2 expressing mouse BA/F3 cells at 10 mg/kg, po upto 2 hrs; type: functional, organism-based; design: dose 10 mg/kg; details: BaF3
[28] = target: Receptor-type tyrosine-protein kinase FLT3 (Homo sapiens, UniProt P36888, D835Y); assay: Inhibition of human FLT3 D835Y mutant
Mus musculus [29] = assay: Inhibition of STAT5 phosphorylation in NCr mouse tansplanted with TEL-JAK2 expressing mouse BA/F3 cells at 10 mg/kg, po measured at 6 hrs; type: functional; details: BaF3, 6 h
Mus musculus [30] = assay: Inhibition of STAT5 phosphorylation in NCr mouse tansplanted with TEL-JAK2 expressing mouse BA/F3 cells at 5 mg/kg, po upto 2 hrs; type: functional, organism-based; design: dose 5 mg/kg; details: BaF3

| SMILES | Vd [1] | IC50 [2] | half-life [3] | bioavailability [4] | IC50 [5] | GI50 [6] | GI50 [8] | microsomal CLint [9] | solubility [10] | clearance [11] | other results |
| --- | --- | --- | --- | --- | --- | --- | --- | --- | --- | --- | --- |
| Cc1cc(Nc2nc(N[C@@H](C)c3ccc(F)cc3)c(C#N)cc2F)n[nH]1 | 2.6 L/kg | 9 nM | 5.7 h | 44% | < 3 nM | 350 nM | 24 nM | 17 µL/min/mg | 13 µM (≈ 4.61 µg/mL) | 7.5 mL/min/kg | GI50 [7]: 33 nM |
| Cc1cc(Nc2nc(N[C@@H](C)c3ccc(F)cn3)c(C#N)cc2F)n[nH]1 | 0.84 L/kg | 7 nM | 2.2 h | 39% | < 3 nM | 1300 nM | 36 nM | 5 µL/min/mg | 303 µM (≈ 108 µg/mL) | 4.8 mL/min/kg | IC50 [12]: 15 nM; bioavailability [13]: 100%; concentration at 6 h [14]: 328 ng/mL; IC50 [15]: 276 nM; Cp(f) [16]: 49 nM; clearance [17]: 7.4 mL/min/kg; inhibition in vivo at 5 mg/kg (Mus musculus [18]): 54%; IC50 [19]: < 1 nM; IC50 [20]: 215 nM; fraction unbound [21]: 0.053; inhibition (Mus musculus [22]): Active; IC50 [23]: 224 nM; concentration at 2 h [24]: 1100 ng/mL; half-life [25]: 3.6 h; IC50 [26]: 3 nM; IC50 (Ephrin type-B receptor 2): > 10000 nM; inhibition (Mus musculus [27]): Active; IC50 [28]: 82 nM; inhibition in vivo at 10 mg/kg (Mus musculus [29]): 54%; inhibition (Mus musculus [30]): Active |
| C[C@H](Nc1nc(Nc2cc(C3CC3)[nH]n2)c(F)cc1C#N)c1ccc(F)cc1 |  | 183 nM |  |  | 3 nM | 1000 nM | 170 nM |  |  |  |  |
| Cc1cc(Nc2nc(N[C@@H](C)c3ccc(F)cn3)c(C#N)cc2Cl)n[nH]1 | 0.52 L/kg | 21 nM | 2.7 h | 47% | < 3 nM | 430 nM | 40 nM | 5 µL/min/mg | 100 µM (≈ 37.2 µg/mL) | 2.3 mL/min/kg |  |
| CC(C)Oc1cc(Nc2nc(N[C@@H](C)c3ccc(F)cc3)c(C#N)cc2F)n[nH]1 |  | 1740 nM |  |  | 688 nM |  |  |  |  |  |  |
